Assay results reported in PubChem BioAssay (NCI).
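Five compound concentrations were applied to cells in 96-well plates for 48 hours; endpoints were derived by simple linear interpolation of the resulting dose-response curve. TGI: total growth inhibition.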

Assays:
P388/ADR leukemia = assay: NCI tumour cell line growth inhibition, 48 h
SN12K1 renal = assay: NCI tumour cell line growth inhibition, 48 h

Question: With `Cc1c(N=NN(C)C)cc[n+]([O-])c1C` as the compound, how does the TGI (P388/ADR leukemia) read?
Answer: > 100 µM

Question: And the TGI (SN12K1 renal)?
Answer: > 100 µM
